These results are taken from ChEMBL document CHEMBL4680122, “Design, synthesis and biological evaluation of new Axl kinase inhibitors containing 1,3,4-oxadiazole acetamide moiety as novel linker” (Eur J Med Chem, 2020).

In one assay the test system is HT-29. Briefly: Antiproliferative activity against human HT-29 cells measured after 72 hrs by MTT assay. The note with it: HT-29, 72 h. (Formazan colour is commonly taken as a measure of viable cells.)
Assay [1] has as its target Platelet-derived growth factor receptor beta (Homo sapiens, UniProt P09619). The assay can be described thus: Inhibition of human His-tagged PDGFRB cytoplasmic domain expressed in baculovirus expression system using peptide substrate measured after 1 hr by mobility shift assay.
Another assay concerns MCF7. Briefly: Antiproliferative activity against human MCF7 cells measured after 72 hrs by MTT assay. The note with it: MCF7, 72 h. It counts as functional, cell-based.
Assay [2] has as its target Vascular endothelial growth factor receptor 2 (Homo sapiens, UniProt P35968). Briefly: Inhibition of human N-terminal GST-fused KDR cytoplasmic domain (790 to 1356 residues) expressed in baculovirus expression system using CSKtide as substrate measured after 1 hr by mobility shift assay.
Assay [3] has as its target T1, Tyrosine-protein kinase Mer (Homo sapiens, UniProt Q12866).
T1 sequence (Q12866 whole entry): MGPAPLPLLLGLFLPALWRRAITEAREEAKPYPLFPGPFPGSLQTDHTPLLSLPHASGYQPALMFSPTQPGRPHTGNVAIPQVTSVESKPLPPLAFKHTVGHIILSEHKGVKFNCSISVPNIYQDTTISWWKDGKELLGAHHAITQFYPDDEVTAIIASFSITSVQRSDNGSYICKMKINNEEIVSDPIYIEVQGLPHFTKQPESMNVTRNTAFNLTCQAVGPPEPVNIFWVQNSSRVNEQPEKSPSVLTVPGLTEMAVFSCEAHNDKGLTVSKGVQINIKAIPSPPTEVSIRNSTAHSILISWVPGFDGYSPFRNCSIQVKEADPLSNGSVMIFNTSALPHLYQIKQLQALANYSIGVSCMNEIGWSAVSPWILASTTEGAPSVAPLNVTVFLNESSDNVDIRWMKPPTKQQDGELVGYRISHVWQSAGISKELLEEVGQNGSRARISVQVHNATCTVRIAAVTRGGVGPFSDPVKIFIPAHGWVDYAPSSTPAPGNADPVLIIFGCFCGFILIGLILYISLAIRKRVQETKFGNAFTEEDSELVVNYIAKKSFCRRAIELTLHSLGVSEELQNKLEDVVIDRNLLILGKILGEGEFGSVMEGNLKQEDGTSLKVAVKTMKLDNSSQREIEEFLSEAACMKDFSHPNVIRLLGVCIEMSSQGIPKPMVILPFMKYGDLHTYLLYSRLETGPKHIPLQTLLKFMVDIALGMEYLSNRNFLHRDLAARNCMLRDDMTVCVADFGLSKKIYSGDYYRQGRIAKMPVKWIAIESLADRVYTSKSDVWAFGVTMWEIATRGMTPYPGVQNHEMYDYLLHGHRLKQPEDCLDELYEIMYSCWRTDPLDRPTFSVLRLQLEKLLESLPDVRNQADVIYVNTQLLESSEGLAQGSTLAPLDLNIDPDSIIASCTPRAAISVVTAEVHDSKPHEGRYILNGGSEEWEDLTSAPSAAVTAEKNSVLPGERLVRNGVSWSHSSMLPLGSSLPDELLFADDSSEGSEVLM
The assay can be described thus: Inhibition of MER (unknown origin).

The test system of the next assay is PC-3. The assay can be described thus: cells. The following applies: Homo sapiens, PC-3, 72 h.
Assay [4] addresses T2, Receptor-type tyrosine-protein kinase FLT3 (Homo sapiens, UniProt P36888).
T2 sequence (P36888 whole entry): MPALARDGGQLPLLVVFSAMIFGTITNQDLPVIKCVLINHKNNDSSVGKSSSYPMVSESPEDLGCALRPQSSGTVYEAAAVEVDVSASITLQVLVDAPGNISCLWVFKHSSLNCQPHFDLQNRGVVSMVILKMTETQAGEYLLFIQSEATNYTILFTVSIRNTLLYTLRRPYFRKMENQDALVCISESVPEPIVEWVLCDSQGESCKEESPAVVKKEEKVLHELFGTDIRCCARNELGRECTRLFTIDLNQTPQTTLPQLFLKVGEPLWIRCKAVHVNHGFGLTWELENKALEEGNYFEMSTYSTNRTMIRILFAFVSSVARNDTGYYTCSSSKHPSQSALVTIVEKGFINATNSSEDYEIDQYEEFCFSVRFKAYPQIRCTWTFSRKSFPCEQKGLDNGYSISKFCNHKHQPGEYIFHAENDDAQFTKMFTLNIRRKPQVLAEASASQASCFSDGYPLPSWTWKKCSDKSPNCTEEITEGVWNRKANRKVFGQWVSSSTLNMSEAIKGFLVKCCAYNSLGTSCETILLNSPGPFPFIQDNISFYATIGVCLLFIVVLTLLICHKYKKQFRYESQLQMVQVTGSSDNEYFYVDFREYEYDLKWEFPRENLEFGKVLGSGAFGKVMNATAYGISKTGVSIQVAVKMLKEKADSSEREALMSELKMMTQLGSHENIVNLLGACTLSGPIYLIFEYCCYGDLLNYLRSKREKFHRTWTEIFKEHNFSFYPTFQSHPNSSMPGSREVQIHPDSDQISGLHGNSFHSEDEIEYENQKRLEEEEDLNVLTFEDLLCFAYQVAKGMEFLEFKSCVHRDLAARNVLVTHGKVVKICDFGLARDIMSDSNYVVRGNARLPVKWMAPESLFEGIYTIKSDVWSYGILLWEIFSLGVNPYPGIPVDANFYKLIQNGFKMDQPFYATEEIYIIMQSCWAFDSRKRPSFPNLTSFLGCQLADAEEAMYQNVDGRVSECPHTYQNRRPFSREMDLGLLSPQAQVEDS
The assay can be described thus: Inhibition of human N-terminal GST-fused FLT3 cytoplasmic domain (564 to 993 residues) expressed in baculovirus expression system using Srctide as substrate measured after 1 hr by mobility shift assay.

Another assay has as its system A549. Briefly: cells. The note with it: Homo sapiens, A549, 72 h.
For assay [5], the target named is Mast/stem cell growth factor receptor Kit (Homo sapiens, UniProt P10721). Briefly: Inhibition of human N-terminal GST-tagged c-Kit cytoplasmic domain (544 to end residues) expressed in baculovirus infected Sf21 insect cells using peptide substrate measured after 1 hr by mobility shift assay.
Chain of Mast/stem cell growth factor receptor Kit (P10721 whole entry, the tested form may be a part): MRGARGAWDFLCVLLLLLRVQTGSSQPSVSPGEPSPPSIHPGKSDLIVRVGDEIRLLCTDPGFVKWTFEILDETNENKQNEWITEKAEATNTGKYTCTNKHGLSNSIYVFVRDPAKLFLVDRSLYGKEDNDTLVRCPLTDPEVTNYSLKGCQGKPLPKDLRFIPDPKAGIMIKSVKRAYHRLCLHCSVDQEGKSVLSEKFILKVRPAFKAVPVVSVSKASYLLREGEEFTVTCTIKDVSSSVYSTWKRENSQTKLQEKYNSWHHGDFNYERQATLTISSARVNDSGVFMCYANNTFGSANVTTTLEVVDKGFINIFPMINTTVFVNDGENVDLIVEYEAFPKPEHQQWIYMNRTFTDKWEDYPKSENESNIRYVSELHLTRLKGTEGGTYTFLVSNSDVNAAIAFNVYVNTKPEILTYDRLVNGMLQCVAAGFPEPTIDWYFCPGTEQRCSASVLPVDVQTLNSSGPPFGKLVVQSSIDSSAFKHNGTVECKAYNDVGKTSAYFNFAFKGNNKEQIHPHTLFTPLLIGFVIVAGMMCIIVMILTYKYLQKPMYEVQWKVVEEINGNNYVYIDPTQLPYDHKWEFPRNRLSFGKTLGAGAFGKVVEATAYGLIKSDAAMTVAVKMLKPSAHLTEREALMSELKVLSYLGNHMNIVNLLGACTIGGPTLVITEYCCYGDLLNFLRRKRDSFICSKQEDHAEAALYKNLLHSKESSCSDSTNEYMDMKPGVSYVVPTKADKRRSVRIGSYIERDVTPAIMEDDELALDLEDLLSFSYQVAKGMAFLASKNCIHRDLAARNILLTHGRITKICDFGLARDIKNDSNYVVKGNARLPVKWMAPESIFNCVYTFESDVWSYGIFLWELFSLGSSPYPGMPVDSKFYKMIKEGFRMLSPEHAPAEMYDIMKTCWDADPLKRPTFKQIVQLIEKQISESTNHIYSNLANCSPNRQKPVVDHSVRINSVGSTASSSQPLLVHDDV
Assay [6] has as its target Hepatocyte growth factor receptor (Homo sapiens, UniProt P08581). Briefly: Inhibition of human N-terminal GST-fused c-MET cytoplasmic domain (956 to 1390 residues) expressed in baculovirus expression system using Srctide as substrate measured after 1 hr by mobility shift assay.
Assay [7] deals with Tyrosine-protein kinase receptor UFO (Homo sapiens) (UniProt P30530). The note with it: dose 100.0 nM, time 1.0 hrs.

Molecules are shown by their SMILES.

Chain of Platelet-derived growth factor receptor beta (P09619 whole entry, the tested form may be a part): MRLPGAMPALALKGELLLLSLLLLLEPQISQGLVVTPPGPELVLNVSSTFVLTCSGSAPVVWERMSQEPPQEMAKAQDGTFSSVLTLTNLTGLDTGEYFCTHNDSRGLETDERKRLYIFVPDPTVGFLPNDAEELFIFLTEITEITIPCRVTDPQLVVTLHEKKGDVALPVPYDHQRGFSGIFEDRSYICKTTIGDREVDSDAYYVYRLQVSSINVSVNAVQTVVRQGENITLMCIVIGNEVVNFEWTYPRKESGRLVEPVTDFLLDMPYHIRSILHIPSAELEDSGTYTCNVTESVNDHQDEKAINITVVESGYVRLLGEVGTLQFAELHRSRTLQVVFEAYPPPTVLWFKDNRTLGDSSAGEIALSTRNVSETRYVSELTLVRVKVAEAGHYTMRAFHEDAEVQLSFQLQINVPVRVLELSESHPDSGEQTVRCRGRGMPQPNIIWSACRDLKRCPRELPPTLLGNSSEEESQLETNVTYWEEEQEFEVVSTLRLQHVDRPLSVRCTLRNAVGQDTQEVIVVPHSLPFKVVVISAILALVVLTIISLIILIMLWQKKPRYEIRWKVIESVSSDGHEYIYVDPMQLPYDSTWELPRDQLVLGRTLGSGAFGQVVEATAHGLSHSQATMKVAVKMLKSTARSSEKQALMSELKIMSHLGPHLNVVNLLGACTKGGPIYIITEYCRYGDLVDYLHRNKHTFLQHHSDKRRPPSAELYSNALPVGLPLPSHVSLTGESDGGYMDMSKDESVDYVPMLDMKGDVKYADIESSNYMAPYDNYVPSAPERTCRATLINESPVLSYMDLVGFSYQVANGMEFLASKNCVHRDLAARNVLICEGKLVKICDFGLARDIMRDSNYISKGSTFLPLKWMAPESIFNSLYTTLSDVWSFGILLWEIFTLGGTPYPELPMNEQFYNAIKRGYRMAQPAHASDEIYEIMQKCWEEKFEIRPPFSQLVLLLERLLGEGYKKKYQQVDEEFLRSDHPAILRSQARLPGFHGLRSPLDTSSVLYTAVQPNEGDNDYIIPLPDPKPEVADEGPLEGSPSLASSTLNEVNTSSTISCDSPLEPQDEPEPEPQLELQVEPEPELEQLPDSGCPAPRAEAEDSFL
Chain of Hepatocyte growth factor receptor (P08581 whole entry, the tested form may be a part): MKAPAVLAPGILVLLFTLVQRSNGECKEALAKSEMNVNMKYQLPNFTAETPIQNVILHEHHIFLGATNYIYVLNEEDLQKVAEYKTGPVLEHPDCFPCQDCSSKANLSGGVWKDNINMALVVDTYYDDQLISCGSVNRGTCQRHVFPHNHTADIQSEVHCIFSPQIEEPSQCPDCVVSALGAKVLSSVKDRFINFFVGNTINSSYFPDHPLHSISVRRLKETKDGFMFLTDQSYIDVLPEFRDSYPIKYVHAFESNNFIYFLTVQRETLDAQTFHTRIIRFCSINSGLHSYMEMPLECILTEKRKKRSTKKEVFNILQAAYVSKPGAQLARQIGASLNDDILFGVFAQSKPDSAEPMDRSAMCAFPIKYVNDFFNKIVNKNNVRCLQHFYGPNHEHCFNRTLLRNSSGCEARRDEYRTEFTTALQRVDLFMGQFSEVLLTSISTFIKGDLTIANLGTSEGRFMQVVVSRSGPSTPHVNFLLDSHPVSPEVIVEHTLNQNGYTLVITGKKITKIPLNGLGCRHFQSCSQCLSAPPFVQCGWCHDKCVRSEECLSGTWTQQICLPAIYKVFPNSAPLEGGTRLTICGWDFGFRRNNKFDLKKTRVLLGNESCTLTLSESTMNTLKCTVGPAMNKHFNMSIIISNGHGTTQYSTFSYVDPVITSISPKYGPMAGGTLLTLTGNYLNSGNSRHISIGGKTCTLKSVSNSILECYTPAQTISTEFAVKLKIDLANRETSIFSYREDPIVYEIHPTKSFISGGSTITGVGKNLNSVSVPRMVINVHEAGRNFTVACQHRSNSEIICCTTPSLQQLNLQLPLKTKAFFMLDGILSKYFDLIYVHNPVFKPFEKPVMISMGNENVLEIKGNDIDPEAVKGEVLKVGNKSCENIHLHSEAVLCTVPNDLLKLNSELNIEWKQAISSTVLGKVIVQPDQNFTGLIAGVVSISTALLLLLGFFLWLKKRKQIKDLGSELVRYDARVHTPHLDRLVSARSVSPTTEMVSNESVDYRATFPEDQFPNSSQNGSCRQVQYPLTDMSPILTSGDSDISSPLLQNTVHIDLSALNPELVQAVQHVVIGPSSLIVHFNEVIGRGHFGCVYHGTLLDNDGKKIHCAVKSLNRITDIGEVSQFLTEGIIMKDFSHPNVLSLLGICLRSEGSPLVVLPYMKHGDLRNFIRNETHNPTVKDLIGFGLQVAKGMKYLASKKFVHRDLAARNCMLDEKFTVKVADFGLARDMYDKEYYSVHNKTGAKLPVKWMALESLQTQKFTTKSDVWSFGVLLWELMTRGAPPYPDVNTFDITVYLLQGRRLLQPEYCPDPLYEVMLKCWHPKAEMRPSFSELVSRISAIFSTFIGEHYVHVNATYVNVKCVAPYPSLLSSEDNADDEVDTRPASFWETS
Chain of Vascular endothelial growth factor receptor 2 (P35968 whole entry, the tested form may be a part): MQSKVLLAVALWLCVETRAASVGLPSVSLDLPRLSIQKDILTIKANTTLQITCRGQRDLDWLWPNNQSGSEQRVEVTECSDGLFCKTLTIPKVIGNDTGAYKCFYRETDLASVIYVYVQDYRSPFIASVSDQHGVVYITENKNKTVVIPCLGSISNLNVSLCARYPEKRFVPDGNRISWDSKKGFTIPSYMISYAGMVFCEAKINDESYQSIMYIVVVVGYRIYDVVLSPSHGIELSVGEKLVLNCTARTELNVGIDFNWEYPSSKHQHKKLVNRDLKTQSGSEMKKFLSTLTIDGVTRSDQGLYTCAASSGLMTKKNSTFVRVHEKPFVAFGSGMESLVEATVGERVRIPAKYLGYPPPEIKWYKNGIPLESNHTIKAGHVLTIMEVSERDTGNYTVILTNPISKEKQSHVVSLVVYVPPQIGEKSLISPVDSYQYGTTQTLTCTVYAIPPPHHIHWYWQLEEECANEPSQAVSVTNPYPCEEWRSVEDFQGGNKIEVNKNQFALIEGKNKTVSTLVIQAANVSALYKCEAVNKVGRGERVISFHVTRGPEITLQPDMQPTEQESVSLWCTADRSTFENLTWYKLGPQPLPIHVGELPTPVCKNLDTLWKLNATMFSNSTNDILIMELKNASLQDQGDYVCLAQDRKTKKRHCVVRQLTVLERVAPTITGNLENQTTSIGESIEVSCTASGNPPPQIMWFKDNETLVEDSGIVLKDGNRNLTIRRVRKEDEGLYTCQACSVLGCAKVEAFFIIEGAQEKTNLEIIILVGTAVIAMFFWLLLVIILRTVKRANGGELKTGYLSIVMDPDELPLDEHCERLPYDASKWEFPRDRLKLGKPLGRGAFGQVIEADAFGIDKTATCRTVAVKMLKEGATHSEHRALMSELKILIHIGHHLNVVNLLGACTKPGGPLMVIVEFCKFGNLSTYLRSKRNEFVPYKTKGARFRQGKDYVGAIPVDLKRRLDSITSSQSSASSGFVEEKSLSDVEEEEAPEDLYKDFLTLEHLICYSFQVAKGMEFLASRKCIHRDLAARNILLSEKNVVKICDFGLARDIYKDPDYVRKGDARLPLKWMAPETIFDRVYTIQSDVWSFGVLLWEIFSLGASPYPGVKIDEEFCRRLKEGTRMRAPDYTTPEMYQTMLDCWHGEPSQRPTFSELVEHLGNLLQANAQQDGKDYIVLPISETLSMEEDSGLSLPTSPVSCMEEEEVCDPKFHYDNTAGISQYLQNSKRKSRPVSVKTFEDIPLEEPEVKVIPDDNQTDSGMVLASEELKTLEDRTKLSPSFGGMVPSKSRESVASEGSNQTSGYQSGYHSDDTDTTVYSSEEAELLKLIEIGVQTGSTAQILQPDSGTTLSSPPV
Description for A549: Antiproliferative activity against human A549 cells measured after 72 hrs by MTT assay
Description for PC-3: Antiproliferative activity against human PC-3 cells measured after 72 hrs by MTT assay

As a reminder, the IC50 is the concentration that inhibits the measured activity by half. With `COc1cc2c(Oc3ccc(NC(=O)C(C)c4nnc(-c5ccc(F)cc5)o4)cc3F)ccnc2cc1OCCCN1CCC(C)CC1` (centres undefined), the concentration for half-maximal inhibition (IC50) with HT-29 is 1460 nM; in assay [1] it was more than 200 nM; in the assay with MCF7, 1000 nM; in [2] it was 40 nM; in assay [3], more than 200 nM; in the assay with PC-3, 530 nM. In addition, the IC50 in assay [4] is more than 200 nM; in the assay on A549, 32 nM; in assay [5], 47 nM; in assay [6], 62 nM.
In general, inhibition refers to the relative decrease from the control value, in per cent. Read a high inhibition as a strong effect. For the compound `COc1cc2c(Oc3ccc(NC(=O)C4(C(=O)Nc5ccc(F)cc5)CC4)cc3F)ccnc2cc1OCCCN1CCOCC1` [FORETINIB], the IC50 is 2000 nM with MCF7, 810 nM in the assay with PC-3 and 210 nM in the assay on A549. This compound also displayed an inhibition in [7] of 88%.
